# Key:
# mouse melanoma B16-F10 [1] = test: Blood-borne lung metastasis model, mouse melanoma tail vein injection (CDDP); assay type: in vivo
# Description: Lung Metastasis Suppressing Effect of Medicament in Blood-Borne Metastasis Model Established by Injection of Mouse Melanoma to Mouse Tail Vein (CDDP)
# Eight-week-old male C57BL6 mice (purchased from Japan SLC, Inc.) were used. Mouse melanoma B16-F10 was purchased from ATCC, and cultured in Dulbecco's Modified Eagle Medium (DMEM) (Life Technologies Corp.) containing 10% fetal calf serum (FCS) under 5% CO2 at 37° C. The cells in a semiconfluent state were treated with EDTA-trypsin (a 0.01 to 0.125% solution), centrifuged, and then suspended in serum free DMEM so as to be 3×10^6 cells/mL. The melanoma cell suspension (100 μL/mouse, 3×10^5 cells) was injected to the tail vein of the mice.
# As pretreatment, 2.5 mg/kg of cisplatin (CDDP) was injected to the tail vein of the mice 2 days before the injection of the melanoma cells into the tail vein.
# As an angiotensin type 2 receptor agonist, Compound A was used.
# To the angiotensin type 2 receptor agonist group, a 0.5% carboxymethylcellulose aqueous solution prepared so as to contain 30 mg/kg of Compound A was orally given from 4 days before the start of the CDDP administration to the end of the experiment (14 days after the injection of melanoma cells) in a continuous manner.
# To the control group, CDDP was not injected, and only a 0.5% carboxymethylcellulose aqueous solution not containing the agent was orally given for the experiment.
# (§1) In addition, for the purpose of comparison, an experiment in which CDDP was not injected and Compound A was orally administered and an experiment in which CDDP was injected and the 0.5% carboxymethylcellulose aqueous solution not containing the agent (Compound A) was orally given were performed.
# The number of animals in each group was n=5.
# The lung metastasis of the tumor cells 14 days after the tumor cell injection was observed. […]
# mouse melanoma B16-F10 [2] = test: Blood-borne lung metastasis model, mouse melanoma tail vein injection (LPS); assay type: in vivo; settings: for LPS-induced lung metastasis of tumor cells (nodules): 30 mg/kg-day oral from 4 days before LPS, LPS 1 mg/kg tail vein 4 to 5 hours before B16-F10 injection, 14 days after tumor cell injection, C57BL6 mice
# Description: Lung Metastasis Suppressing Effect of Medicament in Blood-Borne Metastasis Model Established by Injection of Mouse Melanoma to Mouse Tail Vein (LPS)
# Eight-week-old male C57BL6 mice (purchased from Japan SLC, Inc.) were used. Lipopolysaccharide (LPS) in an amount of 1 mg/kg was injected to the tail vein of each mouse, and mouse melanoma B16-F10 was injected to the tail vein 4 to 5 hours later. At this time, mouse melanoma was injected into the tail vein on the different side from the tail vein to which LPS was injected. Mouse melanoma B16-F10 was purchased from ATCC, and cultured in DMEM (Life Technologies Corp.) containing 10% FCS under 5% CO2 at 37° C. The cells in a semiconfluent state were treated with EDTA-trypsin (a 0.01 to 0.125% solution) and then centrifuged. As an angiotensin type 2 receptor agonist, Compounds A to E were used. The cells were suspended in serum free DMEM so as to be 3×10^6 cells/mL for Compound A administration group, and 2×10^6 cells/mL for Compound B to E administration groups. The melanoma cell suspension ([…]) at a density of 3×10^5 cells for Compound A administration group or at a density of […] for Compound B to E administration groups was injected to the tail vein of the mice.
# To the angiotensin type 2 receptor agonist group, a 0.5% carboxymethylcellulose aqueous solution (0.2 mg/mL) prepared so as to contain 30 mg/kg-day of the agent (each of Compounds A to E) was orally given from 4 days before the start of the LPS administration to the end of the experiment (14 days after the injection of melanoma cells) in a continuous manner. To the control group, LPS was not injected, and only a 0.5% carboxymethylcellulose aqueous solution not containing the agent (any of Compounds A to E) was orally given for the experiment.
# as §1, with “LPS” for “CDDP”, “(any of Compounds A to E)” for “(Compound A)”, “performed. […]” for “performed.”
SMILES,"effect of cisplatin (CDDP) administration on lung metastasis of tumor cells (mouse melanoma B16-F10 [1]; CDDP 2.5 mg/kg tail vein 2 days before B16-F10 injection, 14 days after tumor cell injection)","CDDP-induced exacerbation of the lung metastasis of tumor cells (nodules) (mouse melanoma B16-F10 [1]; 30 mg/kg oral from 4 days before CDDP, CDDP 2.5 mg/kg tail vein 2 days before B16-F10 injection, 14 days after tumor cell injection, C57BL6 mice)","lung metastasis of tumor cells without CDDP administration (mouse melanoma B16-F10 [1]; 30 mg/kg oral, no CDDP, 14 days after B16-F10 tail vein injection, C57BL6 mice)",LPS-induced lung metastasis of tumor cells (nodules) (mouse melanoma B16-F10 [2]),"lung metastasis of tumor cells without LPS administration (mouse melanoma B16-F10 [2]; 30 mg/kg-day oral, no LPS, 14 days after B16-F10 tail vein injection)"
"N.N.[Cl][Pt][Cl] [cisplatin (CDDP), cisplatin, reference compound]",augmented the lung metastasis of tumor cells,–,–,–,–
"CCN(CC)C(=O)[C@H](Cc1ccc(NC(=O)c2ccccc2)cc1)C(=O)NS(=O)(=O)c1ccc2ccccc2c1 [Compound A, (2S)-2-[4-(benzoylamino)benzyl]-N,N-diethyl-N′-(2-naphthylsulfonyl)malonamide]",–,significantly suppressed the CDDP-induced exacerbation of the lung metastasis,capable of suppressing the lung metastasis of tumor cells,significantly suppressed the lung metastasis of tumor cells,suppresses the lung metastasis of tumor cells
"CCN(CC)C(=O)[C@H](Cc1ccc(NC(=O)c2ccc(Cl)cc2N)cc1)C(=O)NS(=O)(=O)c1ccc2ccccc2c1 [Compound E, (2S)-2-{4-[(2-amino-4-chlorobenzoyl)amino]benzyl}-N,N-diethyl-N′-(2-naphthylsulfonyl)malonamide]",–,–,–,significantly suppressed the lung metastasis of tumor cells,–

# From US10071099B2, “Medicament for suppressing malignant tumor metastasis” (NATIONAL CEREBRAL AND CARDIOVASCULAR CENTER, priority 2014, dated 2018)
